# Measured values from PMC10214751, “Poaceae‐specific β‐1,3;1,4‐D‐glucans link jasmonate signalling to OsLecRK1‐mediated defence response during rice‐brown planthopper interactions” (Plant Biotechnology Journal, 2023).
# Target: T1, OsLecRK1 (MBP-OsLecRK1-His) (Oryza sativa, UniProt Q7FAZ3)
# T1 construct: gene LECRK1; recombinant MBP-OsLecRK1-His fusion, purified; MBP and His tags kept; RED-NHS labelled
# T1 sequence (Q7FAZ3 20-813 limits assumed): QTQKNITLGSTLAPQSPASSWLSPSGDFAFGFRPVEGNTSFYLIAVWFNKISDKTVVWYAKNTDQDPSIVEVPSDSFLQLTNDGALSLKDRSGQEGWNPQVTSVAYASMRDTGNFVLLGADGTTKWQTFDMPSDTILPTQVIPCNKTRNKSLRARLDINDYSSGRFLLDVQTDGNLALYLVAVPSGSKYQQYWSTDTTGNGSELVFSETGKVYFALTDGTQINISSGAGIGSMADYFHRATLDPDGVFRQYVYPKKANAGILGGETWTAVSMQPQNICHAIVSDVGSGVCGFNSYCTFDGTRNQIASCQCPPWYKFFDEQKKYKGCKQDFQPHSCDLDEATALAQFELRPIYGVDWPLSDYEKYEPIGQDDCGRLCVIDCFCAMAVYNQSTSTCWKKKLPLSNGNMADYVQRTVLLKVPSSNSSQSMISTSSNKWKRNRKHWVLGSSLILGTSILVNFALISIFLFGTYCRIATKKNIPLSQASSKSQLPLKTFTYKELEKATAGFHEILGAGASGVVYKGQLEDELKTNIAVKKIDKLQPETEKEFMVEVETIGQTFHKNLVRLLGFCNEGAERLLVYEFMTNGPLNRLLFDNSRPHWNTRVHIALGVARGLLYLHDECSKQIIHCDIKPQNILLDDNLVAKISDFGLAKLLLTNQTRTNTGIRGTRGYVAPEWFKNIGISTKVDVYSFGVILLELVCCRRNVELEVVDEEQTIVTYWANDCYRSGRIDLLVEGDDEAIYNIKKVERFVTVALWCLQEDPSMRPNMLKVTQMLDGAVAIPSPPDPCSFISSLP
# Test: microscale thermophoresis, RED-NHS labelled protein
# Type: binding
# Details: labelled protein in NHS buffer pH 8.2 (130 mM NaHCO3, 50 mM NaCl); ligand 1.5 nM to 50 μM
# Text: microscale thermophoresis, RED-NHS labelled protein on OsLecRK1 (MBP-OsLecRK1-His) | MBP‐OsLecRK1‐His recombinant protein bound BGTRIA, BGTRIB, BGTETB, and BGTETC with high affinities
smiles,measurement,value
"OC[C@H]1O[C@@H](O[C@@H]2[C@@H](O)[C@H](O[C@H]3[C@H](O)[C@@H](O)C(O)O[C@@H]3CO)O[C@H](CO)[C@H]2O)[C@H](O)[C@@H](O)[C@@H]1O (stereo partly drawn) [BGTRIA, 3^2‐β‐D‐glucosyl‐cellobiose]",Kd,340 nM
"OC[C@H]1O[C@@H](O[C@H]2[C@H](O)[C@@H](O)[C@H](O[C@H]3[C@H](O)[C@@H](CO)OC(O)[C@@H]3O)O[C@@H]2CO)[C@H](O)[C@@H](O)[C@@H]1O (stereo partly drawn) [BGTRIB, 3^1‐β‐D‐cellobiosyl‐glucose]",Kd,600 nM
